We go through four compounds from patent USRE33375E, “Treatments employing drug-containing matrices for introduction into cellular lesion areas” (Matrix Pharmaceuticals, Inc., priority 1988, dated 1990).

Data set [1] has as its system experimental murine fibrosarcoma (RIF-1 cells). In words: Regrowth delay of the treated transplantable murine fibrosarcoma. The data set is classed as in vivo, murine; female C3H mice.
Method: times their initial treatment volume (150 mm^3). Increasing values
indicate enhanced therapeutic effect.
When the tumors reached a volume of 150 mm^3, the mice were assigned randomly to the following groups (4-6 mice per group): (1) untreated controls; (2) 5-FU (100 mg/kg), i.p., 0.1 ml/mouse; (3) 5-FU (100 mg/kg), i.t., 0.1 ml/tumor; (4) 5-FU-BC (100 mg 5-FU/kg dispersed in BC (18 mg/ml)), i.t., 0.1 ml/tumor; 5-FU-EPI-BC (100 mg 5-FU/kg) 5 mg EPI/kg dispersed in BC (18 mg/ml), i.t., 0.1 ml/tumor.
In the next study doxorubicin-HCl (ADM) (Adriamycin) was studied using the above-described protocol. The adriamycin in distilled water (4.45 mg/ml) was mixed with 36 mg/ml bovine collagen (BC) 1:1 to yield a composition ratio of 2.25 mg adriamycin:18 mg BC/ml.
^2 Tumor Regrowth Delay (RD). Time (days) required for tumors to grow
to 3 × its original treatment volume (~150 mm^3).
Increasing RD indicate increased tumor cell killing.
In data set [2] the test system is uninjected contralateral fibrosarcoma (RIF-1 cells). In words: Regrowth delay of the uninjected contralateral fibrosarcoma. The data set is classed as in vivo, murine; female C3H mice. As to the method:
A transplantable experimental murine fibrosarcoma (2×10^5 RIF-1 cells) was grown intradermally in the flank of 5 month old female C3H mice (Bantin and Kingman, Fremont, Calif.). Cis-diamine dichloroplatinum (II) (cis-Pt) (Sigma Chemical Co., St. Louis, Mo.) was dissolved in sterile saline at concentrations of 0.8, 1.6 and 3.2 mg/ml and mixed 1:1 with bovine collagen (BC) (36 mg/ml) in PBS 20 mM phosphate, 140 mM NaCl (Collagen Corp., Palo Alto, Calif.). Doses of 2, 4 and 8 mg/kg host of cis-Pt were delivered in 0.1 ml of the collagenous drug mixture to the center of the tumor growing in the flank (intratumorally, i.t.), and the tumor measured. The growth of a second uninjected tumor on the opposing flank of the same mouse was also measured. In addition, cis-Pt dissolved in PBS without collagen was administered intraperitoneally (i.p.) to other tumor-bearing mice (4 tumors/group) to monitor the effects on tumor growth of the drug without collagen. Furthermore, the effect of bovine collagen on tumor growth was also studied by injection of 0.1 ml of collagen, (18 mg/ml) into the experimental fibrosarcomas, as previously described. The growth of the tumors was monitored three times per week by caliper measurements of three perpendicular diameters of the tumor and calculating tumor volume from the formula
*Regrowth Delay determined as the time (days) for tumors to grow to four
times their initial treatment volume (150 mm^3).
(§1) In the next study 5-fluorouracil (5-FU) (Sigma Chem. Co., St. Louis, Mo.) with and without epinephrine (Sigma) suspended in saline by sonication (60 mg/ml) and mixed 1:1 with bovine collagen (BC) (Collagen Corp., Palo Alto, Calif.) (36 mg/ml) or normal saline. The subjects were 25 gm 12 week-old female C3H/He mice (Bantin and Kingman, Fremont, Calif.) bearing the transplatable experimental murine fibrosarcoma propagated intradermally as previously described.
(§2) The adriamycin in distilled water (4.45 mg/ml) was mixed with 36 mg/ml bovine collagen (BC) 1:1 to yield a composition ratio of 2.25 mg adriamycin:18 mg BC/ml.
^3 Contralateral Tumor RD (CRD). Time (days) required for untreated
contralateral tumors to grow to 3× its original treatment volume
(~150 mm^3). Decreasing RD indicate enhanced regionalization of
drug injected when compared to RD.
(§3) In the next study vincristine (VCR) was dissolved in saline (0.6 mg/ml) by sonication and mixed 1:1 with bovine collagen (36 mg/ml). Otherwise, the procedure was the same.
In the next study a combination of bleomycin sulfate (Sigma Chemical Co., St. Louis, Mo.) (15 mg/kg) and epinephrine (5 mg/kg) employed in a bovine collagen composition were evaluated for antitumor effect in the transplantable experimental murine fibrosarcoma model previously described. […]

Data set [3] concerns white blood cells. In words: White blood cell count in tumor-bearing mice. As to the method:
as §1
(§4) On day four post-treatment, white blood cells (wbc) were counted by sampling blood from the tail, dilution in Turk's solution and counting in a hemocytometer. On day eight post-treatment, skin reaction is overlying tissue was graded for untoward response.
as §2
^4 White Blood Cells measured on Day 4 post injection by sampling fro
the tail of treatment mice.
as §3
In the next study a combination of bleomycin sulfate (Sigma Chemical Co., St. Louis, Mo.) (15 mg/kg) and epinephrine (5 mg/kg) employed in a bovine collagen composition were evaluated for antitumor effect in the transplantable experimental murine fibrosarcoma model previously described.
(§5) In another experiment the curative potential of drug matrix formulations was evaluated in the experimental murine fibrosarcoma model. Briefly, female C3H/He mice bearing a single experimental tumor produced as previously described were treated at weekly intervals with formulations containing 5-fluorouracil (50 mg/kg); bovine collagen BC (Collagen Corp., Palo Alto, Calif.); epinephrine (Sigma Chemical Co., St. Louis, Mo.); and PBS. WBC's were determined on Day 4 following each treatment cycle and skin reaction on […] after each treatment cycle. Treatment was discontinued for all grops when 3 of 4 experiment groups reach 4×initial tumor volume. When tumors reached a volume of 150 mm^3 the mice were randomly assigned to the following groups:
(§6) 2. 5-FU-PBS i.p.; 5-FU (23 mg/ml) was combined 1:1 with PBS; 0.1 ml injected/mouse i.p.
(§7) 3. 5-FU-PBS i.t.; 5-FU (23 mg/ml) was combined 1:1 with PBS; 0.1 ml injected/tumor i.t.
(§8) 4. 5-FU-BC i.t.; 5-FU (23 mg/ml) was combined 1:1 with bovine collagen (36 mg/ml); 0.1 ml injected i.t.
(§9) In another experiment the influence of matrix composition on antitumor activity of 5-fluorouracil (100 mg/kg) was evaluated in the experimental murine fibrosarcoma model previously described. 5-FU (Sigma Chemical Co., St. Louis, Mo.) was combined as described below with bovine collagen BC (Collagen Corp., Palo Alto, Calif.); bovin fibronogen (95% clottable, Sigma), bovine thrombin (2000NIH units/mg, Sigma) and Ringer's Solution For Injection (RFI, Abbott Labs., North Chicago, Ill.). When tumors reached a volume of 150 mm^3 the mice (Bantin and Kingman, Fremont, Calif.) were assigned randomly to the following groups, (3-4 mice/group):
(§10) 3. 5-FU-Fibrinogen: 5-FU (36 mg/ml) combined 1:1 with the fibrinogen preparation described in 2 above, 0.1 ml i.t.
(§11) 4. 5-FU-BC-Fibrinogen: 5-FU (36 mg/ml) combined 1:1 with a fibrinogen-BC preparation consisting of fibrinogen (30 mg/ml); BC (36 mg/ml) dispersed in RFI containing 1 NIH unit of thrombin activity/ml, 0.1 ml i.t.

The subject of data set [4] is skin overlying the tumor. In words: Skin reaction of the skin overlying the tumor. As to the method: as §4
(§12) The skin reaction is scored as follows: […]
as §12, §5, §9, §10, §11
In the next experiment 5-fluorouracil-matrix implant in combination with X-rays was evaluated. Single RIF-1 tumors were grown on the back of female C3H mice (12-16 weeks) (Bantin and Kingman, Fremont, Calif.) as previously described. When the tumors reached volumes of 150 mm^3, they were divided into the following groups, (4-6 mice/group):
(§13) Tumor bearing mice were irradiated in lead jigs exposing only the tumor and overlying skin with a 250 kVp X-ray machine at a dose rate of 120 rad/min. The tumors of the treated and untreated mice were measured three times per week and assayed for regrowth delay and skin reactions as previously described.

For data set [5], the system named is experimental murine fibrosarcoma. In words: Tumor regrowth delay on weekly treatment (curative potential). It counts as in vivo, murine; female C3H/He mice. As to the method:
as §5, §6, §7, §8

The test system of data set [6] is RIF-1 tumor. In words: RIF-1 tumor regrowth delay, 5-fluorouracil-matrix implant in combination with X-rays. The data set is classed as in vivo, female C3H mice. To be noted: 5-FU 75 mg/Kg, i.p. As to the method: In the next experiment 5-fluorouracil-matrix implant in combination with X-rays was evaluated. […] When the tumors reached volumes of 150 mm^3, they were divided into the following groups, (4-6 mice/group):
2. X-rays (1000 rad.) alone
3. Collagen-matrix (CM) i.t. 5 min. before X-rays
4. 5-Fluorouracil (5-FU) (75 mg/Kg) i.p.
6. 5-FU i.p. 5 min before X-rays
as §13

Data set [7] in a line: Acute animal toxicity / survival after injection. The settings on record: 15 mg/kg. As to the method:
as §1, §2

Setting [8] is: 5-FU 100 mg/kg, i.p., mean ± S.E.
[9] abbreviates: 5-FU 100 mg/kg, i.t. (± EPI 5 mg/kg), mean ± S.E.
The mark [10] stands for this setting: 5-FU 50 mg/kg on Days 0, 8 and 16, i.p.
Setting [11] is: 5-FU 50 mg/kg on Days 0, 8 and 16, i.t. (± Epinephrine 5 mg/kg).
The mark [12] stands for this setting: BLM 15 mg/kg, i.p., mean ± S.E.
The mark [13] stands for this setting: BLM 15 mg/kg, i.t. (± EPI 5 mg/kg), mean ± S.E.

The mortality is the percentage killed. A lower mortality goes with a weak lethal effect.

Where a name gives a salt, the structure may show the parent alone. Marks after values point to notes of the source that are not given here.

Regarding `O=c1[nH]cc(F)c(=O)[nH]1` [5-FU, 5-fluorouracil], the entries for the “Tumor Regrowth Delay” value in data set [1] (setting [8]) and in data set [1] (setting [9]) were 13.1 ± 1.4 days and 14.5 ± 0.9 days, respectively. For the same compound, the “Untreated Contralateral Regrowth Delay” value is 13.1 ± 1.4 days in data set [2] (setting [8]) and 11.1 ± 0.6 days in data set [2] (setting [9]). Moreover, the “WBC D-12” value in data set [3] (setting [10]) is 109 ± 28; in data set [3] (setting [11]), 107 ± 25. Besides, the “White Blood Cells/mm^3” value in data set [3] (5-FU 100 mg/kg, i.p., day four post-treatment) was 4.5 ± 0.6 Cells/mm^3 (× 10^3); in data set [3] (5-FU 100 mg/kg, i.t. (± EPI 5 mg/kg), day four post-treatment), 3.5 ± 0.5 Cells/mm^3 (× 10^3). Also, the “Skin Reaction D-8” value worked out at 1.2 ± 1.1 in data set [4] (setting [10]) and 1.0 ± 0.6 in data set [4] (setting [11]). The “Skin Reaction” value is recorded as 2 in data set [4] (5-FU 75 mg/Kg, i.p. + X-rays (1000 rad), scored as previously described (0-3)); 2 in data set [4] (5-FU 75 mg/Kg, i.p., no X-rays, scored as previously described (0-3)); 0.7 ± 0.4 in data set [4] (5-FU 100 mg/kg, i.p., Day 8, 0 = no effect, 1 = superficial inflammation, 2 = scab, 3 = ulcer); 0 in data set [4] (5-FU 100 mg/kg, i.t. (± EPI 5 mg/kg), Day 8, 0 = no effect, 1 = superficial inflammation, 2 = scab, 3 = ulcer). The figures for the “Tumor Regrowth 4 ×” value in data set [5] (setting [10]) and in data set [5] (setting [11]) were 10.3 ± 1.3 days and 14.9 ± 3.8 days, respectively. Besides, the “2× Tumor Regrowth Delay” value in data set [6] (5 min before X-rays (1000 rad)) amounted to 12.6 ± 2.8 days; in data set [6] (no X-rays), 8.5 ± 1.1 days.
Consider `COc1cccc2c1C(=O)c1c(O)c3c(c(O)c1C2=O)C[C@@](O)(C(=O)CO)C[C@@H]3O[C@H]1C[C@H](N)[C@H](O)[C@H](C)O1` [Free ADM, doxorubicin-HCl], for which the “Tumor Regrowth Delay, Treated” value in data set [1] (ADM 15 mg/kg, i.t., time to 3 × original treatment volume (~150 mm^3)) is 13.7 ± 1.7 days. In addition, the “Tumor Regrowth Delay, Contralateral” value in data set [2] (ADM 15 mg/kg, i.t., untreated contralateral tumor, time to 3× original treatment volume (~150 mm^3)) is 8.3 ± 0.75 days. In data set [3] (ADM 15 mg/kg, i.t., Day 4 post injection), the “White Blood Cells/mm^3” value was 4.1 ± 0.69 Cells/mm^3 (× 10^3). Besides, the “Skin Reaction” value in data set [4] (ADM 15 mg/kg, i.p., Day 8 post injection, 0 = no effect, 1 = superficial inflammation, 2 = scab, 3 = ulcer) amounted to 1.5 ± 0.5; in data set [4] (ADM 15 mg/kg, i.t., Day 8 post injection, 0 = no effect, 1 = superficial inflammation, 2 = scab, 3 = ulcer), 2.0. In addition, the “toxicity of intratumoral injection” value in data set [7] (intratumoral injection) is reported as “non-toxic”. In addition, the survival was found to be 100% in data set [7] (mouse, in vivo) and 25% in data set [7] (mouse, in vivo, ip). In addition, the mortality in data set [7] (mouse, in vivo, ip) amounted to 75%.
On to `CC[C@]1(O)C[C@H]2CN(CCc3c([nH]c4ccccc34)[C@@](C(=O)OC)(c3cc4c(cc3OC)N(C=O)[C@H]3[C@@](O)(C(=O)OC)[C@H](OC(C)=O)[C@]5(CC)C=CCN6CC[C@]43[C@@H]65)C2)C1` [VCR, vincristine], for which, in data set [1] (VCR 2 mg/kg, i.p.), the “Tumor Regrowth Delay” value came to 10.6 ± 2.0 days. The “Untreated Contralateral Regrowth Delay” value in data set [2] (VCR 2 mg/kg, i.p.) came to 10.6 ± 2.0 days. For the same compound, the “White Blood Cells/mm^3” value in data set [3] (VCR 2 mg/kg, i.p.) was 7.4 ± 1.3 Cells/mm^3 (× 10^3). The “Skin Reaction” value in data set [4] (VCR 2 mg/kg, i.p., scored as in the preceding studies (0-3)) is listed as 0.6 ± 0.4.
Take bleomycin sulfate [BLM]: the “Tumor Regrowth Delay” value turned out to be 7.5 ± 0.9 days in data set [1] (setting [12]) and 8.9 ± 0.6 days in data set [1] (setting [13]). Also, the “Untreated Contralateral Regrowth Delay” value turned out to be 7.5 ± 0.9 days in data set [2] (setting [12]) and 7.0 ± 0.7 days in data set [2] (setting [13]).
